“And” between values parts separate entries of the source, which are not always exact repeats. Equal entries are not always repeated. Where two headings read alike, the source gives them in different places.
Key:
[1] = target: human recombinant CB1 receptor (Homo sapiens, UniProt P21554); assay: Competition binding assay, displacement of [3H]-CP-55,940, CB1R
Experimental: (§1) Binding at equilibrium was performed as previously reported. […] All compounds were tested following the procedure described by the manufacturer (Perkin Elmer, Italy). […] Ki values were calculated by applying the Cheng–Prusoff equation to the IC50 values (obtained by GraphPad) for the displacement of the bound radioligand by increasing concentrations of the test compound.

[2] = target: T1, human CB2 receptor (Homo sapiens, UniProt P34972); assay: Competition binding assay, displacement of [3H]-CP-55,940, CB2R; design: logKiCB2 (nM) Exp.: unit not given here
T1 sequence (P34972 whole entry): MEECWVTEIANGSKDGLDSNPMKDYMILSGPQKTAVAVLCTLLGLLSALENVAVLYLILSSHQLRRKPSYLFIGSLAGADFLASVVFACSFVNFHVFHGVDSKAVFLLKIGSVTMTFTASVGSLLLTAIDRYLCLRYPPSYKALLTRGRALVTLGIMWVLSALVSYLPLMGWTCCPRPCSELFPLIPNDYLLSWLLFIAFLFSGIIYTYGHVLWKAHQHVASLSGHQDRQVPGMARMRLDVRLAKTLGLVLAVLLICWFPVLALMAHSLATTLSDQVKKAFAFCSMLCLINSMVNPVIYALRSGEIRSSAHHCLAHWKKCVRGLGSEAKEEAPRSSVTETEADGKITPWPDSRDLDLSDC
Experimental: as §1

[3] = target: T1, human CB2 receptor; assay: cAMP Hunter functional assay in NKH-477-stimulated CHO-K1 cells overexpressing CB2R; conditions: agonist mode / antagonist mode with JWH-133 4 µM challenge
[4] = CB2R Ki, membranes from HEK cells, [3H]CP-55,940, mean ± SD, at least three experiments in duplicate
[5] = membranes from HEK cells, [3H]CP-55,940, mean ± SD, at least three experiments in duplicate, read-out: CB1R Ki
[6] = membranes from HEK cells, [3H]CP-55,940, mean ± SD, at least three experiments in duplicate, read-out: CB2R Ki
[7] = logKiCB2 (nM) Exp., log of experimental Ki

Sequence of human recombinant CB1 receptor (P21554 whole entry): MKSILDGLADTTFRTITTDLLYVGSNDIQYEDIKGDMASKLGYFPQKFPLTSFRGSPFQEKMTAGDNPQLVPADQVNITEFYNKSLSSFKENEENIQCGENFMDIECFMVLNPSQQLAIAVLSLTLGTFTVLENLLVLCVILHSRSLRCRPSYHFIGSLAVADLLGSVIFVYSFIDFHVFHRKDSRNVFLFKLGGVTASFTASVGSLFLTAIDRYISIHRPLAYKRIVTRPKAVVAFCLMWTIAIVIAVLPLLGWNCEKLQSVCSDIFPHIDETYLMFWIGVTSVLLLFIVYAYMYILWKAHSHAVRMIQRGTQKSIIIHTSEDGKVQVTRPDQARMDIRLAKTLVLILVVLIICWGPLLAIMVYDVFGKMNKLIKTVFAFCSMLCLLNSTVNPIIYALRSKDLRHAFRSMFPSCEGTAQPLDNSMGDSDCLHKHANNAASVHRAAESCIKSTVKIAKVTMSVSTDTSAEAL

Row | Compound | SI (selectivity index for CB2R, Ki(CB1R)/Ki(CB2R)) [2] | Ki [2, 4] | logKiCB2 (nM) Exp. ([2]; log of experimental Ki) | Ki [1, 5] [µM] | Ki [2, 6] [nM] | also measured
1 | C#CCn1ncc2c1c(O)c(C(=O)NC13CC4CC(CC(C4)C1)C3)c(=O)n2C(C)C [Compound 58] | >162 | 61.8 ± 20.8 nM | 1.79 | – | – | Ki [1]: > 10 µM
2 | CCCCn1c(=O)c(C(=O)NC(c2ccccc2)c2ccccc2)c(O)c2nn(C)cc21 [Compound 19, N-Benzhydryl-4-(1-butyl)-7-hydroxy-2-methyl-5-oxo-4,5-dihydro-2H-pyrazolo[4,3-b]pyridine-6-carboxamide] | >70 | – | 2.15 | > 10 | 142 ± 110 | –
3 | CC(C)n1c(=O)c(C(=O)NC23CC4CC(CC(C4)C2)C3)c(O)c2n[nH]cc21 [Compound 56] | – | – | – | > 10 | > 10000 | CB2 receptor affinity in words [2]: inactive
4 | CC(C)n1c(=O)c(C(=O)NC2CCCCCCC2)c(O)c2nn(C)cc21 [Compound 23, N-Cyclooctyl-7-hydroxy-4-isopropyl-2-methyl-5-oxo-4,5-dihydro-2H-pyrazolo[4,3-b]pyridine-6-carboxamide] | – | – | – | > 10 | > 10000 | –
5 | CCCCn1c(=O)c(C(=O)NC2CCCc3ccccc32)c(O)c2nn(C)cc21 (stereo not shown) [Compound 18, 4-(1-Butyl)-7-hydroxy-2-methyl-5-oxo-N-(1,2,3,4-tetrahydronaphthalen-1-yl)-4,5-dihydro-2H-pyrazolo[4,3-b]pyridine-6-carboxamide] | >578 | < 20 nM and 17.3 nM | – | > 10 | – | Ki [2, 7]: 24 nM; Functional behavior at CB2R [3]: antagonist/inverse agonist behavior
6 | C#CCn1cc2c(n1)c(O)c(C(=O)NC13CC4CC(CC(C4)C1)C3)c(=O)n2C(C)C [Compound 59] | – | > 10000 nM | – | – | – | Ki [1]: > 10 µM; CB2 receptor affinity in words [2]: inactive
7 | CCCCn1c(=O)c(C(=O)Nc2ccc(F)cc2)c(O)c2nn(C)cc21 [Compound 16, 4-(1-Butyl)-N-(4-fluorophenyl)-7-hydroxy-2-methyl-5-oxo-4,5-dihydro-2H-pyrazolo[4,3-b]pyridine-6-carboxamide] | – | – | – | > 10 | > 10000 | –
8 | CC(C)n1c(=O)c(C(=O)NC23CC4CC(CC(O)(C4)C2)C3)c(O)c2nn(C)cc21 [Compound 22, 7-Hydroxy-N-(1-hydroxyadamantan-3-yl)-4-isopropyl-2-methyl-5-oxo-4,5-dihydro-2H-pyrazolo[4,3-b]pyridine-6-carboxamide] | – | – | – | > 10 | > 10000 | –
9 | CCCCn1c(=O)c(C(=O)NC2CCCC2)c(O)c2nn(C)cc21 [Compound 14, 4-(1-Butyl)-N-cyclopentyl-7-hydroxy-2-methyl-5-oxo-4,5-dihydro-2H-pyrazolo[4,3-b]pyridine-6-carboxamide] | – | – | – | > 10 | > 10000 | –
10 | CCCCCn1c(=O)c(C(=O)NC23CC4CC(CC(C4)C2)C3)c(O)c2c1c(C)nn2C [Compound 52, N-(Adamantan-1-yl)-7-hydroxy-1,3-dimethyl-5-oxo-4-(1-pentyl)-4,5-dihydro-1H-pyrazolo[4,3-b]pyridine-6-carboxamide] | >293 | 34.1 ± 4.88 nM | 1.53 | > 10 | – | melting point: 167 to 169 °C
11 | COc1ccc(Cn2c(=O)c(C(=O)NC34CC5CC(CC(C5)C3)C4)c(O)c3nn(C)cc32)c(OC)c1 [Compound 27, N-(Adamantan-1-yl)-4-(2,4-dimethoxybenzyl)-7-hydroxy-2-methyl-5-oxo-4,5-dihydro-2H-pyrazolo[4,3-b]pyridine-6-carboxamide] | – | – | – | > 10 | > 10000 | CB2 receptor affinity in words [2]: completely inactive; melting point: > 270 °C
12 | CC(C)n1c(=O)c(C(=O)NC23CC4CC(CC(C4)C2)C3)c(O)c2c1cnn2CC#N [Compound 60] | >206 | – | 1.68 | > 10 | 48.5 ± 10.9 | –
13 | CC(C)n1c(=O)c(C(=O)NC23CC4CC(CC(C4)C2)C3)c(O)c2nn(C)cc21 [Compound 21, N-(Adamantan-1-yl)-7-hydroxy-4-isopropyl-2-methyl-5-oxo-4,5-dihydro-2H-pyrazolo[4,3-b]pyridine-6-carboxamide] | – | > 10000 nM | – | – | – | Ki [1]: > 10 µM
14 | CCCCn1c(=O)c(C(=O)NCc2ccc(F)cc2)c(O)c2nn(C)cc21 [Compound 17, 4-(1-Butyl)-N-(4-fluorobenzyl)-7-hydroxy-2-methyl-5-oxo-4,5-dihydro-2H-pyrazolo[4,3-b]pyridine-6-carboxamide] | – | – | – | > 10 | > 10000 | –
15 | CC(C)n1c(=O)c(C(=O)NC23CC4CC(CC(C4)C2)C3)c(O)c2nn(CC(=O)OC(C)(C)C)cc21 [Compound 61] | – | – | – | > 10 | > 10000 | CB2 receptor affinity in words [2]: inactive
16 | CCn1cc2c(n1)c(O)c(C(=O)NC13CC4CC(CC(C4)C1)C3)c(=O)n2CC [Compound 33, N-(Adamantan-1-yl)-2,4-diethyl-7-hydroxy-5-oxo-4,5-dihydro-2H-pyrazolo[4,3-b]pyridine-6-carboxamide] | >416 | – | 1.38 | > 10 | 24 ± 15.3 | melting point: 245 to 247 °C
17 | CCCCn1c(=O)c(C(=O)NC(C)(C)C)c(O)c2nn(CC)cc21 [Compound 34, 4-(1-Butyl)-N-(tert-butyl)-2-ethyl-7-hydroxy-5-oxo-4,5-dihydro-2H-pyrazolo[4,3-b]pyridine-6-carboxamide] | >95 | – | 2.02 | > 10 | 106 ± 18.1 | –
18 | CCCCn1c(=O)c(C(=O)NC(C)(C)C)c(O)c2nn(C)cc21 [Compound 13, 4-(1-Butyl)-N-(tert-butyl)-7-hydroxy-2-methyl-5-oxo-4,5-dihydro-2H-pyrazolo[4,3-b]pyridine-6-carboxamide] | – | – | – | > 10 | > 10000 | –
19 | CC(C)n1c(=O)c(C(=O)NC(c2ccccc2)c2ccccc2)c(O)c2nn(C)cc21 [Compound 25, N-Benzhydryl-7-hydroxy-4-isopropyl-2-methyl-5-oxo-4,5-dihydro-2H-pyrazolo[4,3-b]pyridine-6-carboxamide] | – | – | – | > 10 | > 10000 | –
20 | CC(C)n1c(=O)c(C(=O)NC23CC4CC(CC(C4)C2)C3)c(O)c2nn(Cc3ccc(F)cc3)cc21 [Compound 62] | – | – | – | > 10 | > 10000 | CB2 receptor affinity in words [2]: inactive
21 | CCCCn1c(=O)c(C(=O)NC2CCCCCCC2)c(O)c2nn(C)cc21 [Compound 15, 4-(1-Butyl)-N-cyclooctyl-7-hydroxy-2-methyl-5-oxo-4,5-dihydro-2H-pyrazolo[4,3-b]pyridine-6-carboxamide] | >1107 | < 20 nM and 9.03 nM | – | > 10 | – | Ki [2, 7]: 14.5 nM; Functional behavior at CB2R [3]: antagonist/inverse agonist behavior
22 | CCCCn1c(=O)c(C(=O)N[C@@H](Cc2ccccc2)C(=O)OC(C)(C)C)c(O)c2nn(C)cc21 [Compound 20, tert-Butyl (4-Butyl-7-hydroxy-2-methyl-5-oxo-4,5-dihydro-2H-pyrazolo[4,3-b]pyridine-6-carbonyl)-L-phenylalaninate] | – | – | – | > 10 | > 10000 | –
23 | CCCCn1c(=O)c(C(=O)NC23CC4CC(CC(C4)C2)C3)c(O)c2nn(C)c(C)c21 [Compound 54, N-(Adamantan-1-yl)-4-(1-butyl)-7-hydroxy-2,3-dimethyl-5-oxo-4,5-dihydro-2H-pyrazolo[4,3-b]pyridine-6-carboxamide] | – | < 20 nM and 2.16 nM | 0.33 | > 10 | – | CB1 receptor activity in words [1]: not active at all; melting point: 213 to 216 °C
24 | CC(C)n1c(=O)c(C(=O)NC2CCCc3ccccc32)c(O)c2nn(C)cc21 (stereo not shown) [Compound 24, 7-Hydroxy-4-isopropyl-2-methyl-5-oxo-N-(1,2,3,4-tetrahydronaphthalen-1-yl)-4,5-dihydro-2H-pyrazolo[4,3-b]pyridine-6-carboxamide] | – | – | – | > 10 | > 10000 | –
25 | CCCCn1c(=O)c(C(=O)NC23CC4CC(CC(C4)C2)C3)c(O)c2nn(CC)cc21 [Compound 35, N-(Adamantan-1-yl)-4-(1-butyl)-2-ethyl-7-hydroxy-5-oxo-4,5-dihydro-2H-pyrazolo[4,3-b]pyridine-6-carboxamide] | 227 | < 20 nM and 0.45 nM | −0.35 | 0.102 ± 0.0152 | – | Functional behavior at CB2R [3]: antagonist/inverse agonist behavior
26 | Cc1c2c(nn1C)c(O)c(C(=O)NC13CC4CC(CC(C4)C1)C3)c(=O)n2C(C)C [Compound 53, N-(Adamantan-1-yl)-7-hydroxy-4-isopropyl-2,3-dimethyl-5-oxo-4,5-dihydro-2H-pyrazolo[4,3-b]pyridine-6-carboxamide] | – | – | – | > 10 | > 10000 | CB2 receptor affinity in words [2]: inactive; melting point: > 260 °C
27 | CCCCn1c(=O)c(C(=O)NC23CC4CC(CC(C4)C2)C3)c(O)c2c1c(C)nn2C [Compound 51, N-(Adamantan-1-yl)-4-(1-butyl)-7-hydroxy-1,3-dimethyl-5-oxo-4,5-dihydro-1H-pyrazolo[4,3-b]pyridine-6-carboxamide] | >280 | 35.6 ± 19.5 nM | 1.55 | > 10 | – | melting point: 162 to 165 °C

From publication PMC10343475, “Systematic Modification of the Substitution Pattern of the 7-Hydroxy-5-oxopyrazolo[4,3-b]pyridine-6-carboxamide Scaffold Enabled the Discovery of New Ligands with High Affinity and Selectivity for the Cannabinoid Type 2 Receptor” (Molecules, 2023)
